Assay [1] concerns the target T1, 5-hydroxytryptamine receptor 2C (Homo sapiens, UniProt P28335).
T1 sequence (P28335 whole entry): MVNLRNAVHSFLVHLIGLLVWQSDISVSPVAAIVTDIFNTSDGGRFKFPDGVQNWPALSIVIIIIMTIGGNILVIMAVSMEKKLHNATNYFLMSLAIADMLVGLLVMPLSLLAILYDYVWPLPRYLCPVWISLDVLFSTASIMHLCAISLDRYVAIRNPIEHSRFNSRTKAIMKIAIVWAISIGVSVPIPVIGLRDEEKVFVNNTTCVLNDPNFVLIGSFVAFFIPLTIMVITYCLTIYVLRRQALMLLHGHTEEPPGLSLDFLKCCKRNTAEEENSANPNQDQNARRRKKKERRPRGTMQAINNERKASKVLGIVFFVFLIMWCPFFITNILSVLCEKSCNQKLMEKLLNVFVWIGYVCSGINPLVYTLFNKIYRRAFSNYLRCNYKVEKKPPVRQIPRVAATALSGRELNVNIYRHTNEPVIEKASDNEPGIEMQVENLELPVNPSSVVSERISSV
Kind of assay: DRUGMATRIX: Serotonin (5-Hydroxytryptamine) 5-HT2C radioligand binding (ligand: [3H] Mesulergine). Type of assay: cell membranes, CHO-K1, Membrane. The following applies: cho-k1; Not Active = under 50% inhibition at 10 µM.

Another assay addresses D(3) dopamine receptor (Homo sapiens, UniProt P35462). Kind of assay: DRUGMATRIX: Dopamine D3 radioligand binding (ligand: [3H] Spiperone). Type of assay: cell membranes, CHO, Membrane.
Assay [2] is described as follows: DRUGMATRIX: GABAA, Muscimol, Central radioligand binding (ligand: [3H] Muscimol). The following applies: Not Active = under 50% inhibition at 10 µM. Type of assay: cell membranes, Rattus norvegicus, Wistar, Brain, Membrane.
In another assay the target is T2, Leukotriene C4 synthase (Cavia porcellus, UniProt A6XA80).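 Also: enzyme inhibition assay of leukotriene C4 synthase, using LTA4 as the substrate; in other assays of this panel Not Active means under 50% inhibition at 10 µM.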
T2 sequence (A6XA80 whole entry): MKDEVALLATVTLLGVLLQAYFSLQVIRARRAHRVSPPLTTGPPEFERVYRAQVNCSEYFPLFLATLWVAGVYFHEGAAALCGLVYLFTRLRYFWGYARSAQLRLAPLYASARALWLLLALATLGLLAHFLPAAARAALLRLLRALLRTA
Type of assay: tissue-based, Lung.

Assay [3] in a line: DRUGMATRIX: Potassium Channel [KATP] radioligand binding (ligand: [3H] Glyburide). Type of assay: cell membranes, Membrane. The following applies: hit-t15; Not Active = under 50% inhibition at 10 µM.
Assay [4] concerns the target Mitogen-activated protein kinase 1 (Homo sapiens, UniProt P28482). Kind of assay: DRUGMATRIX: Protein Serine/Threonine Kinase, ERK2 enzyme inhibition (substrate: Myelin Basic Protein). The arrangement: species or system Escherichia coli. The settings on record: Not Active = under 50% inhibition at 10 µM.
For a further assay, the target named is T3, Estrogen receptor (Homo sapiens, UniProt P03372). Also: in other assays of this panel Not Active means under 50% inhibition at 10 µM.
T3 sequence (P03372 whole entry): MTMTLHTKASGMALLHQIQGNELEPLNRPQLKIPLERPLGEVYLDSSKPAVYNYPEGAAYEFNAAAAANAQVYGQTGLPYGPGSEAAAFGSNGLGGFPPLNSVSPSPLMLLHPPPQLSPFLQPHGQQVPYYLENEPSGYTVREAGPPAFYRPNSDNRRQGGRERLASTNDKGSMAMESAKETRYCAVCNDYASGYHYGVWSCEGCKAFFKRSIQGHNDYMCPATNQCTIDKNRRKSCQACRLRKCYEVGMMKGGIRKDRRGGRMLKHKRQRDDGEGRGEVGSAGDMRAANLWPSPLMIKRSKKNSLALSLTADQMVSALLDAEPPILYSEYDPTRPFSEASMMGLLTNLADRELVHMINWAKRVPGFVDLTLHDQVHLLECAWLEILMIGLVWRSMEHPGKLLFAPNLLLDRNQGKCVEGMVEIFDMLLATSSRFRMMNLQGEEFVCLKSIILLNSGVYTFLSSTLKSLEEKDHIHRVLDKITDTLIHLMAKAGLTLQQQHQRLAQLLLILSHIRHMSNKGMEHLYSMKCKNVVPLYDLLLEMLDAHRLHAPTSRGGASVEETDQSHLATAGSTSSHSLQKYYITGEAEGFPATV
The settings on record: sf9.

The values below come from ChEMBL document CHEMBL1909046, “DrugMatrix in vitro pharmacology data”.

For orientation: IC50 means the concentration that gives 50% inhibition. Broadly, the Ki is a dissociation constant, usually derived from enzyme kinetics or from competition with a known ligand.

Chain of Mitogen-activated protein kinase 1 (P28482 whole entry): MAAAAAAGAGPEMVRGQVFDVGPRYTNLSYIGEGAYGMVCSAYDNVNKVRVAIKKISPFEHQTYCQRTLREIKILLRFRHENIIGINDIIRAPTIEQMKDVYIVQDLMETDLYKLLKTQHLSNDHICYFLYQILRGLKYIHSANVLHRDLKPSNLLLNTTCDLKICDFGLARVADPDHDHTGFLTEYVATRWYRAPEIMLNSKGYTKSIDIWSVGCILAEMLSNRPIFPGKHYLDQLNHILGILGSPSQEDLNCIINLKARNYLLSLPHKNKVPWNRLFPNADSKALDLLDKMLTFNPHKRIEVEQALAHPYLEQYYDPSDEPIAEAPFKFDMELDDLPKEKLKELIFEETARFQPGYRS
Chain of D(3) dopamine receptor (P35462 whole entry): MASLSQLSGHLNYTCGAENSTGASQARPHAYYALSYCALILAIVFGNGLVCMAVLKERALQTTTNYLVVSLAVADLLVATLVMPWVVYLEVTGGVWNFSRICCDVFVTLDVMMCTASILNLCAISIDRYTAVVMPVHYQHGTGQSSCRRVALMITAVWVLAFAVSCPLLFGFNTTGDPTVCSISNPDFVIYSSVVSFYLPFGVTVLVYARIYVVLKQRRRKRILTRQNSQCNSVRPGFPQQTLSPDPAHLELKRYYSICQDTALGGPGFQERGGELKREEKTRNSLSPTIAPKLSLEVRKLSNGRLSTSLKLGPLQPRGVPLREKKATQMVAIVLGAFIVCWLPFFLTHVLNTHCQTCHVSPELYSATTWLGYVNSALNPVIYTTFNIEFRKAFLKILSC

Regarding `C[N+](C)(C)CCOC(=O)CCC(=O)OCC[N+](C)(C)C.[Cl-].[Cl-]` [SUCCINYLCHOLINE CHLORIDE], the IC50 result (in assay [1]; at D(3) dopamine receptor (cho); in assay [2]; on Leukotriene C4 synthase; in assay [3]; in assay [4]) was “Not Active” in each case. Also, the IC50 result at Estrogen receptor is on record as “Not Active”. Also, the Ki entry in assay [2] and in assay [3] was “Not Active” throughout.
`Nc1ccc(S(=O)(=O)NC(=O)c2ccccc2)cc1` [SULFABENZAMIDE]: the IC50 result (in assay [1]; on D(3) dopamine receptor (cho); in assay [2]; at Leukotriene C4 synthase; in assay [3]; in assay [4]) was “Not Active” each time. The IC50 entry on Estrogen receptor is recorded as “Not Active”. Further, the Ki result in assay [2] and in assay [3] was “Not Active” in each case.
`CCCCCCCCNC(C)C(O)c1ccc(SC(C)C)cc1` (stereo not given) [SULOCTIDIL]: the IC50 entry in assay [1] was “Not Active”; at D(3) dopamine receptor (read-out: IC50), 2100 nM; in assay [2] it was “Not Active”; at Leukotriene C4 synthase, “Not Active”; in assay [3] it was “Not Active”; in assay [4], “Not Active”. Further, at Estrogen receptor, the IC50 entry was “Not Active”. Moreover, the Ki is 715 nM on D(3) dopamine receptor (read-out: Ki), “Not Active” in assay [2] and “Not Active” in assay [3].
As to `Cc1ccc(C(=O)c2ccc(CC(=O)O)n2C)cc1` [TOLMETIN], the IC50 result (in assay [1]; on D(3) dopamine receptor (cho); in assay [2]; on Leukotriene C4 synthase; in assay [3]; in assay [4]) was “Not Active” each time. The IC50 result against Estrogen receptor is “Not Active”. Besides, the Ki entry in assay [2] and in assay [3] was “Not Active” throughout.
Take TRANSPLATIN: the IC50 result in assay [1] is “Not Active”; on D(3) dopamine receptor (cho, read-out: IC50), 3320 nM; in assay [2] it was “Not Active”; on Leukotriene C4 synthase, “Not Active”; in assay [3] it was “Not Active”; in assay [4] it was “Not Active”. Also, on Estrogen receptor, the IC50 result is recorded as “Not Active”. Besides, the Ki result in assay [1] is “Not Active”; on D(3) dopamine receptor (cho, read-out: Ki), 1130 nM; in assay [2] it was “Not Active”; on Leukotriene C4 synthase, “Not Active”; in assay [3] it was “Not Active”; in assay [4] it was “Not Active”. Further, the Ki result on Estrogen receptor is given as “Not Active”.
In the case of ZIRCONIUM(IV) CHLORIDE, the IC50 entry (in assay [1]; on D(3) dopamine receptor (cho); in assay [2]; at Leukotriene C4 synthase; in assay [3]; in assay [4]) was “Not Active” each time. The IC50 entry at Estrogen receptor was “Not Active”. Moreover, the Ki entry (in assay [1]; on D(3) dopamine receptor (cho); in assay [2]; at Leukotriene C4 synthase; in assay [3]; in assay [4]) was “Not Active” each time. On Estrogen receptor, the Ki entry is listed as “Not Active”.
